The values below come from US11878965B2, “Inhibitors of peptidylarginine deiminases” (Gilead Sciences, Inc., priority 2020, dated 2024).

For this test, the target named is human PAD4 (Homo sapiens (Human), UniProt Q9UM07). In words: In Vitro PAD4 BAEE Biochemical Assay. As to conditions: geometric mean of multiple experiments. A digest of the protocol: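 Recombinant human PAD4 (His-SUMO tag removed, E. coli-expressed), 5 nM, preincubated with compound and 2 mM CaCl2 30 min at 25 °C in MOPS pH 7.6 with DTT; 3 mM BAEE added for 2 h at 25 °C, EDTA stop. Released ammonia detected by o-phthalaldehyde/DTT fluorescence (ex 405, em 535 nm).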

[1] abbreviates: human PAD4, BAEE substrate, 5 nM PAD4, 2 mM calcium chloride, 3 mM BAEE.
The mark [2] stands for this setting: recombinant PAD4 5 nM, 2 mM calcium chloride, 3 mM BAEE substrate.

Chain of human PAD4 (Q9UM07 2-663): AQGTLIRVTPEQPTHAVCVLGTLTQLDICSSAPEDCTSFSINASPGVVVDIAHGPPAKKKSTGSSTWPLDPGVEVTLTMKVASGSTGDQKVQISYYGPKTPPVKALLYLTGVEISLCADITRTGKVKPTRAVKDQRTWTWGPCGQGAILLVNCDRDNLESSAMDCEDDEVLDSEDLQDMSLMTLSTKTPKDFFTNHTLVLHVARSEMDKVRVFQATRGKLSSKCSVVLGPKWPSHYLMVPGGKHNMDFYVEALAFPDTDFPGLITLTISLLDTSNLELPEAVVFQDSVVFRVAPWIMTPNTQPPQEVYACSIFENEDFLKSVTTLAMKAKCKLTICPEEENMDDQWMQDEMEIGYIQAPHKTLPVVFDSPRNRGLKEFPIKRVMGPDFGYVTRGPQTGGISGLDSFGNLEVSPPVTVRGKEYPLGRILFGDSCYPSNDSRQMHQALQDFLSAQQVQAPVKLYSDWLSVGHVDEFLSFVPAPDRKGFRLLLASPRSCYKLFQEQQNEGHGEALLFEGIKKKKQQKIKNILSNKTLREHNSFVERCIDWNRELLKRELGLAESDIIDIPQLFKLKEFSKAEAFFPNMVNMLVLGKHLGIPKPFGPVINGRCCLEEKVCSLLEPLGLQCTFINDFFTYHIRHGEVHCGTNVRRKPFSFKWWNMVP

For `COc1cc(C(=O)N2[C@H]3CC[C@@H]2[C@H](N)C3)cc2nc(-c3cc4ccc(N(C)S(C)(=O)=O)nc4n3CC3CC3)n(C)c12` [Example 79, N-(2-(5-((1R,2R,4S)-2-amino-7-azabicyclo[2.2.1]heptane-7-carbonyl)-7-methoxy-1-methyl-1H-benzo[d]imidazol-2-yl)-1-(cyclopropylmethyl)-1H-pyrrolo[2,3-b]pyridin-6-yl)-N-methyl-methanesulfonamide], under setting [1], the half-inhibitory concentration (IC50) came to 33.6 nM.
Same read-out and setting: under `COc1cc(C(=O)N2C[C@H](N)CC[C@@H]2C)cc2nc(-c3cc4ccc(N(C(F)F)S(C)(=O)=O)nc4n3CC3CC3)n(C)c12` [Example 38, N-(2-(5-((2S,5R)-5-amino-2-methylpiperidine-1-carbonyl)-7-methoxy-1-methyl-1H-benzo[d]imidazol-2-yl)-1-(cyclopropylmethyl)-1H-pyrrolo [2,3-b]pyridin-6-yl)-N-(difluoromethyl) methanesulfonamide] stands 93.4 nM.
`[2H]C1([2H])[C@H](N)[C@@H]2CC[C@@H](C2)N1C(=O)c1cc(OC)c2c(c1)nc(-c1cc3ccc(C(C)NC(=O)C45CC(F)(C4)C5)nc3n1CC1CC1)n2C` (stereo partly drawn) [Example 301, N-((R)-1-(2-(5-((1S,4R,5R)-4-amino-2-azabicyclo[3.2.1]octane-2-carbonyl-3,3-d2)-7-methoxy-1-methyl-1H-benzo[d]imidazol-2-yl)-1-(cyclopropylmethyl)-1H-pyrrolo[2,3-b]pyridin-6-yl)ethyl)-3-fluorobicyclo[1.1.1]pentane-1-carboxamide]: the half-inhibitory concentration (IC50) under setting [2] is 65.8 nM.
Consider `COc1cc(C(=O)N2C[C@H](N)CCN2C)cc2nc(-c3cc4ccc([C@@H](C)NC(=O)C5(CC(F)F)CC5)nc4n3CC3CC3)n(C)c12` [Example 193, N-((R)-1-(2-(5-((R)-5-amino-2-methylhexahydropyridazine-1-carbonyl)-7-methoxy-1-methyl-1H-benzo[d]imidazol-2-yl)-1-(cyclopropylmethyl)-1H-pyrrolo[2,3-b]pyridin-6-yl)ethyl)-1-(2,2-difluoroethyl)cyclopropane-1-carboxamide], for which, under setting [1], the concentration for half-maximal inhibition (IC50) turned out to be 142 nM.
Take `COc1cc(C(=O)N2[C@H]3CC[C@@H]2[C@H](N)C3)cc2nc(-c3cc4ccc([C@@H](C)NC(=O)C(C)(C)C)nc4n3CC3CC3)n(C)c12` [Example 120, N—((R)-1-(2-(5-((1R,2R,4S)-2-amino-7-azabicyclo[2.2.1]heptane-7-carbonyl)-7-methoxy-1-methyl-1H-benzo[d]imidazol-2-yl)-1-(cyclopropylmethyl)-1H-pyrrolo[2,3-b]pyridin-6-yl)ethyl)pivalamide]: under setting [1], the IC50 worked out at 60.6 nM.
Same read-out and setting: under `COc1cc(C(=O)N[C@H]2CCNC2)cc2nc(-c3cc4ccc(N(C(F)F)S(C)(=O)=O)nc4n3CC3CC3)n(C)c12` [Example 88, (S)-2-(1-(cyclopropylmethyl)-6-((N-(difluoromethyl)methyl)sulfonamido)-1H-pyrrolo[2,3-b]pyridin-2-yl)-7-methoxy-1-methyl-N-(pyrrolidin-3-yl)-1H-benzo[d]imidazole-5-carboxamide] stands 50000 nM; under `COc1cc(C(=O)N[C@@H]2CNC[C@H]2NC(=O)/C=C/CN(C)C)cc2nc(-c3cc4ccc(N(C(F)F)S(C)(=O)=O)nc4n3CC3CC3)n(C)c12` (stereo in doubt) [Example 71, 2-[1-(cyclopropylmethyl)-6-[difluoromethyl(methylsulfonyl)amino]pyrrolo[2,3-b]pyridin-2-yl]-N-[(3R,4R)-4-[[(E)-4-(dimethylamino)but-2-enoyl]amino]pyrrolidin-3-yl]-7-methoxy-1-methyl-benzimidazole-5-carboxamide], 490 nM; under `COc1cc(C(=O)N2CCC[C@@H](N)C2)cc2nc(-c3cc4ccc(N(C)S(=O)(=O)c5ccccc5)nc4n3CC3CC3)n(C)c12` [Example 12, (R)-N-(2-(5-(3-aminopiperidine-1-carbonyl)-7-methoxy-1-methyl-1H-benzo[d]imidazol-2-yl)-1-(cyclopropylmethyl)-1H-pyrrolo [2,3-b]pyridin-6-yl)-N-methylbenzenesulfonamide], 225 nM.
In the case of `C[C@@H](NC(=O)[C@@H]1CC1(F)F)c1ccc2cc(-c3nc4cc(C(=O)N5C[C@H](N)[C@@H]6CC[C@H]5C6)cc(F)c4n3C3CC3)n(CC3CC3)c2n1` [Example 226, (S)-N-((R)-1-(2-(5-((1S,4R,5R)-4-amino-2-azabicyclo[3.2.1]octane-2-carbonyl)-1-cyclopropyl-7-fluoro-1H-benzo[d]imidazol-2-yl)-1-(cyclopropylmethyl)-1H-pyrrolo[2,3-b]pyridin-6-yl)ethyl)-2,2-difluorocyclopropane-1-carboxamide], the IC50 under setting [1] was 53.2 nM.
Still for that read-out and setting: the result for `COc1cc(C(=O)N2C[C@H](N)CC[C@@H]2C)cc2nc(-c3cc4ccc(-c5ccc6nnnn6c5C)nc4n3CC3CC3)n(C)c12` [Example 275, ((2S,5R)-5-amino-2-methylpiperidin-1-yl)(2-(1-(cyclopropylmethyl)-6-(5-methyltetrazolo[1,5-a]pyridin-6-yl)-1H-pyrrolo[2,3-b]pyridin-2-yl)-7-methoxy-1-methyl-1H-benzo[d]imidazol-5-yl)methanone] reads 658 nM.
For the compound `C[C@@H](NC(=O)C1(C#N)CC1)c1ccc2cc(-c3nc4cc(C(=O)N5C[C@H](N)[C@@H]6CC[C@H]5C6)cc(F)c4n3C3CC3)n(CC3CC3)c2n1` [Example 303, N-((R)-1-(2-(5-((1S,4R,5R)-4-amino-2-azabicyclo[3.2.1]octane-2-carbonyl)-1-cyclopropyl-7-fluoro-1H-benzo[d]imidazol-2-yl)-1-(cyclopropylmethyl)-1H-pyrrolo[2,3-b]pyridin-6-yl)ethyl)-1-cyanocyclopropane-1-carboxamide], the IC50 under setting [2] was determined as 84.1 nM.
Turning to `COc1cc(C(=O)N2C[C@H](N)CC[C@@H]2C)cc2nc(-c3cc4ccc(N5CCCCC5=O)nc4n3CC3CC3)n(C)c12` [Example 272, 1-(2-(5-((2S,5R)-5-amino-2-methylpiperidine-1-carbonyl)-7-methoxy-1-methyl-1H-benzo[d]imidazol-2-yl)-1-(cyclopropylmethyl)-1H-pyrrolo[2,3-b]pyridin-6-yl)piperidin-2-one], the half-maximal inhibitory concentration (IC50) under setting [1] amounted to 785 nM.
Same read-out and setting: the result for `COc1cc(C(=O)N2CCC[C@@H](N)C2)cc2nc(-c3cc4ccc(N5CCCN(C)S5(=O)=O)nc4n3CC3CC3)n(C)c12` [Example 106, (R)-(3-aminopiperidin-1-yl)(2-(1-(cyclopropylmethyl)-6-(6-methyl-1,1-dioxido-1,2,6-thiadiazinan-2-yl)-1H-pyrrolo[2,3-b]pyridin-2-yl)-7-methoxy-1-methyl-1H-benzo[d]imidazol-5-yl)methanone] reads 434 nM; that for `COc1cc(C(=O)N2C[C@H](N)CCN2C)cc2nc(-c3cc4ccc([C@@H](C)NC(=O)C56CC(C)(C5)C6)nc4n3CC3CC3)n(C)c12` [Example 187, N-((R)-1-(2-(5-((R)-5-amino-2-methylhexahydropyridazine-1-carbonyl)-7-methoxy-1-methyl-1H-benzo[d]imidazol-2-yl)-1-(cyclopropylmethyl)-1H-pyrrolo[2,3-b]pyridin-6-yl)ethyl)-3-methylbicyclo[1.1.1]pentane-1-carboxamide], 96.9 nM; that for `COc1cc(C(=O)N2[C@H]3CC[C@@H]2[C@H](N)C3)cc2nc(-c3cc4ccc([C@@H](C)NC(=O)c5ccccc5)cc4n3CC3CC3)n(C)c12` [Example 136, N-((R)-1-(2-(5-((1R,2R,4S)-2-amino-7-azabicyclo[2.2.1]heptane-7-carbonyl)-7-methoxy-1-methyl-1H-benzo[d]imidazol-2-yl)-1-(cyclopropylmethyl)-1H-indol-6-yl)ethyl)benzamide], 27.6 nM.
Same read-out and setting: the result for `CCN(c1ccc2cc(-c3nc4cc(C(=O)N5CCC[C@@H](N)[C@H]5C)cc(OC)c4n3C)n(CC3CC3)c2n1)S(C)(=O)=O` [Example 28, N-(2-(5-((2R,3R)-3-amino-2-methylpiperidine-1-carbonyl)-7-methoxy-1-methyl-1H-benzo[d]imidazol-2-yl)-1-(cyclopropylmethyl)-1H-pyrrolo [2,3-b]pyridin-6-yl)-N-ethylmethanesulfonamide] reads 98.6 nM.
With `COc1cc(C(=O)N2C[C@H](N)[C@@H]3CC[C@H]2C3)cc2nc(-c3cc4ccc([C@@H](C)NC(=O)C(C)(C)OC)nc4n3CC3CC3)n(C)c12` [Example 321, N-((R)-1-(2-(5-((1S,4R,5R)-4-amino-2-azabicyclo[3.2.1]octane-2-carbonyl)-7-methoxy-1-methyl-1H-benzo[d]imidazol-2-yl)-1-(cyclopropylmethyl)-1H-pyrrolo[2,3-b]pyridin-6-yl)ethyl)-2-methoxy-2-methylpropanamide], the concentration for half-maximal inhibition (IC50) under setting [2] came to 72 nM.
In the case of `COc1cc(C(=O)N2[C@H]3CC[C@@H]2[C@H](N)C3)cc2nc(-c3cc4ccc([C@@H](C)NC(=O)c5ccccc5)nc4n3CC3CC3)n(C)c12` [Example 123, N-((R)-1-(2-(5-((1R,2R,4S)-2-amino-7-azabicyclo[2.2.1]heptane-7-carbonyl)-7-methoxy-1-methyl-1H-benzo[d]imidazol-2-yl)-1-(cyclopropylmethyl)-1H-pyrrolo[2,3-b]pyridin-6-yl)ethyl)benzamide], the 50% inhibitory concentration (IC50) under setting [1] is 29.2 nM.
On to `C[C@@H](NC(=O)C1CCOCC1)c1ccc2cc(-c3nc4cc(C(=O)N5C[C@H](N)[C@@H]6CC[C@H]5C6)cc(F)c4n3C3CC3)n(CC3CC3)c2n1` [Example 304, N-((R)-1-(2-(5-((1S,4R,5R)-4-amino-2-azabicyclo[3.2.1]octane-2-carbonyl)-1-cyclopropyl-7-fluoro-1H-benzo[d]imidazol-2-yl)-1-(cyclopropylmethyl)-1H-pyrrolo[2,3-b]pyridin-6-yl)ethyl)tetrahydro-2H-pyran-4-carboxamide], for which the concentration for half-maximal inhibition (IC50) under setting [2] stood at 48.6 nM.

For orientation: IC50 means the concentration at which inhibition is half-maximal.
